Data on one molecule can be found in patent US20030055004A1, “GPE analogs and peptidominetics” (priority 2001, published 2003).

The structures appear in SMILES notation.

The assay relates to cortical cultures. The experiment in a line: Neuroprotection in cortical cultures after toxin (okadaic acid), MTT survival assay. It counts as cell-based, rat. To be noted: higher concentrations of GPE, FIG. 12, 24 hrs incubation, 8DIV. As for the experimental part:
One cortical hemisphere from a postnatal day 1 rat was used and collected into 4 ml of DMEM. Trituration was done with a 5 ml glass pipette and subsequently through an 18 gauge needle. Afterwards, the cell suspension was sieved through a 100 μm cell strainer and washed in 50 ml DMEM (centrifugation for 5 min at 250 g). […] After cells reached confluence, they were washed three times with PBS and adjusted to Neurobasal/B27 and incubated for another 3 days. This supernatant was frozen for transient storage until usage at −80° C. A dam was sacrificed by CO2-treatment in a chamber for up to 4 minutes and was prepared then for cesarean section. After surgery, the embryos were removed from their amniotic sacs, decapitated and the heads put on ice in DMEM/F12 medium for striatum and PBS+0.65% D(+)-glucose for cortex. The two cortical hemispheres were carefully removed by a spatula from the whole brain with the ventral side facing upside into a PBS +0.65% D(+)-glucose containing petri dish. […] Cells were counted and adjusted to 50,000 cells per 60 μl. […] The survival rate was determined by a colorimetric end-point MTT-assay at 595 nm in a multi-well plate reader. For the cerebellar microexplants four windows (field of 0.65 mm^2) with highest cell density were chosen and cells displaying neurite outgrowth were counted.

Regarding `NCC(=O)N1CCC[C@H]1C(=O)N[C@@H](CCC(=O)O)C(=O)O` [GPE, glycyl-L-prolyl-L-glutamic acid], the neuroprotection is reported as 64%.
